The source made the active and inactive calls. No cut-off for these calls is given here.
Molecular target: T1, Acetylcholinesterase (Electrophorus electricus, UniProt O42275)
Experiment: Inhibition of electric eel AChE incubated overnight by two fold serial dilution method
Settings: not given

T1 sequence (O42275 whole entry): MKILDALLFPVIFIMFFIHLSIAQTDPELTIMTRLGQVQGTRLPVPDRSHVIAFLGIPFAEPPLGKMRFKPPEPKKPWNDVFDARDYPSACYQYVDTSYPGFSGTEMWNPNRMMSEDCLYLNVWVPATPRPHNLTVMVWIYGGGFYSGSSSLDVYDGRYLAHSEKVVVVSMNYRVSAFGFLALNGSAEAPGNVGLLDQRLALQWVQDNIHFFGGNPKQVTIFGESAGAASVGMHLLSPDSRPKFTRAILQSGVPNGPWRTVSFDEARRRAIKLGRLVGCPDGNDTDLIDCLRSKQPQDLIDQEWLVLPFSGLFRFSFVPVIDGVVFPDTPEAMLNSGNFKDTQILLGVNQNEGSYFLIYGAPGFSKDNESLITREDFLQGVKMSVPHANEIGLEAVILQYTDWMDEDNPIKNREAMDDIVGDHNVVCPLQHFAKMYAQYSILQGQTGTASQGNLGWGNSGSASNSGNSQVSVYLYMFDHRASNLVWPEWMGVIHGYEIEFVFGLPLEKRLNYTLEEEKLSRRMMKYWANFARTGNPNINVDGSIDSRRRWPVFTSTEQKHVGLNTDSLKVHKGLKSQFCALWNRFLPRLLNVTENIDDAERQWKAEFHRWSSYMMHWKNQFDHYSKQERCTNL

Which IC50 does the source give for `CN1C(=O)C(F)=C[C@@H]2[C@H]1C[C@H]2S(=O)(=O)NCCc1ccc(F)cc1` here?
The IC50 was 3.37 µM.

Which IC50 does the source give for `CN1C(=O)C(F)=C[C@@H]2[C@H]1C[C@H]2S(=O)(=O)NCCc1ccccc1F` here?
Its IC50 is 12.5 µM.

Which IC50 does the source give for `CN1C(=O)C(F)=C[C@@H]2[C@H]1C[C@H]2S(=O)(=O)N1CCOCC1` here?
Its IC50 is 1.8 µM.

With `CN1C(=O)C(F)=C[C@@H]2[C@H]1C[C@H]2S(=O)(=O)NCCC1CCN(Cc2ccccc2)CC1` as the molecule, how does the IC50 read?
Its IC50 is 0.34 µM.

With `CN1C(=O)C(F)=C[C@@H]2[C@H]1C[C@H]2S(=O)(=O)CC1CCN(Cc2ccccc2F)CC1` as the molecule, how does the IC50 read?
Its IC50 is 5.06 µM.

Which IC50 does the source give for `O=C1N[C@@H]2C[C@@H](S(=O)(=O)NCCC3CCN(Cc4ccccc4)CC3)[C@@H]2c2c(Cl)cccc21` here?
Its IC50 is 0.099 µM.

With `CCCNS(=O)(=O)[C@@H]1C[C@@H]2[C@H]1C=C(F)C(=O)N2C` as the molecule, how does the IC50 read?
Its IC50 is 5.59 µM.

With `O=C1N[C@@H]2C[C@@H](S(=O)(=O)NCCC3CCN(Cc4ccccc4)CC3)[C@@H]2c2c(Br)cccc21` as the molecule, how does the IC50 read?
Its IC50 is 0.28 µM.

Which IC50 does the source give for `CN1C(=O)C(F)=C[C@@H]2[C@H]1C[C@H]2S(=O)(=O)N1CCC(Cc2ccc(F)cc2)CC1` here?
The IC50 was 8.35 µM.

Molecular target: T1, Acetylcholinesterase
Experiment: Inhibition of electric eel AChE assessed as inhibition constant using acetylthiocholine iodide as substrate by Lineweaver-Burk plot analysis
Settings: not given

Which Ki does the source give for `O=C1N[C@@H]2C[C@@H](S(=O)(=O)NCCC3CCN(Cc4ccccc4)CC3)[C@@H]2c2c(Cl)cccc21` here?
Its Ki is 0.128 µM.

Molecular target: Acetylcholinesterase (Electrophorus electricus) (UniProt O42275)
Sequence (O42275 24-633 limits assumed): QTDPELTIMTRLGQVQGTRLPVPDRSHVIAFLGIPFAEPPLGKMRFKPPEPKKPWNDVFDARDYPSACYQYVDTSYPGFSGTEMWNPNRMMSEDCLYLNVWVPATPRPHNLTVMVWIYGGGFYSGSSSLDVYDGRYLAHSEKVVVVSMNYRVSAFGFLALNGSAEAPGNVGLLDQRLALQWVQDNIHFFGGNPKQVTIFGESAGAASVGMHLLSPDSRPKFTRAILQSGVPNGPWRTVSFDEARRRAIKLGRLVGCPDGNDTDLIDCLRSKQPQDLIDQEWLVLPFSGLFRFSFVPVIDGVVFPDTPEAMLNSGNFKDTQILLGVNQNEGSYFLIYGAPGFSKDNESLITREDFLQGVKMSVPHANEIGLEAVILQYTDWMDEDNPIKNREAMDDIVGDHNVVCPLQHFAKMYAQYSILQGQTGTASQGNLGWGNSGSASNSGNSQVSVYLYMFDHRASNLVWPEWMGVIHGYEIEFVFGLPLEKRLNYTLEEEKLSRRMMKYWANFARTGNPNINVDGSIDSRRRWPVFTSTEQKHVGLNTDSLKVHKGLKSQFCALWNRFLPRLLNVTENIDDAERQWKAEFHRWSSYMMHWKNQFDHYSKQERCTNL
Experiment: Inhibition of electric eel AChE using acetylthiocholine iodide as substrate at 20 uM preincubated for 20 mins followed by substrate addition and measured after 20 mins by DTNB reagent based Ellman's method
Settings: time 40.0 min

For `O=C1N[C@@H]2C[C@@H](S(=O)(=O)F)[C@@H]2c2c(Br)cccc21`, which inhibition is on record?
The inhibition was “Active”.

For `O=C1N[C@@H]2C[C@@H](S(=O)(=O)F)[C@@H]2c2c(Cl)cccc21`, which inhibition is on record?
The inhibition was “Active”.

System: Mus musculus
Experiment: Neuroprotective activity against amyloid beta 1-42 peptide induced ICR mouse assessed as reduction in latency at 5 mg/kg,po administration
Assay type: functional, organism-based
Settings: not given

With `O=C1N[C@@H]2C[C@@H](S(=O)(=O)NCCC3CCN(Cc4ccccc4)CC3)[C@@H]2c2c(Cl)cccc21` as the molecule, how does the Activity read?
The Activity was “Active”.

System: not listed separately
Experiment: Permeability of the compound in PBS at pH 7.4 by incubated for 18 hrs by […] assay based UV- spectroscopy
Assay type: ADME
Settings: read-out: permeability

With `C[C@]12CC[C@H]3[C@@H](CCC4=CC(=O)CC[C@@]43C)[C@@H]1CC[C@@H]2O` [TESTOSTERONE] as the molecule, how does the Papp at 18 h read?
Its Papp at 18 h is 1.8 ×10⁻⁶ cm/s.

Which Papp at 18 h does the source give for `CC(=O)[C@H]1CC[C@H]2[C@@H]3CCC4=CC(=O)CC[C@]4(C)[C@H]3CC[C@]12C` [PROGESTERONE] here?
Its Papp at 18 h is 16.4 ×10⁻⁶ cm/s.

With `CN1C(=O)C(F)=C[C@@H]2[C@H]1C[C@H]2S(=O)(=O)NCCC1CCN(Cc2ccccc2)CC1` as the molecule, how does the Papp at 18 h read?
The Papp at 18 h was 12.3 ×10⁻⁶ cm/s.

For `O=C1N[C@@H]2C[C@@H](S(=O)(=O)NCCC3CCN(Cc4ccccc4)CC3)[C@@H]2c2c(Cl)cccc21`, which Papp at 18 h is on record?
The Papp at 18 h was 13.1 ×10⁻⁶ cm/s.

For `CN1C(C(=O)Nc2ccccn2)=C(O)c2ccccc2S1(=O)=O` [PIROXICAM], which Papp at 18 h is on record?
The Papp at 18 h was 9.9 ×10⁻⁶ cm/s.

With `O=C1N[C@@H]2C[C@@H](S(=O)(=O)NCCC3CCN(Cc4ccccc4)CC3)[C@@H]2c2c(Br)cccc21` as the molecule, how does the Papp at 18 h read?
Its Papp at 18 h is 10 ×10⁻⁶ cm/s.

Molecular target: Cholinesterase (Equus caballus) (UniProt P81908)
Sequence (P81908 whole entry): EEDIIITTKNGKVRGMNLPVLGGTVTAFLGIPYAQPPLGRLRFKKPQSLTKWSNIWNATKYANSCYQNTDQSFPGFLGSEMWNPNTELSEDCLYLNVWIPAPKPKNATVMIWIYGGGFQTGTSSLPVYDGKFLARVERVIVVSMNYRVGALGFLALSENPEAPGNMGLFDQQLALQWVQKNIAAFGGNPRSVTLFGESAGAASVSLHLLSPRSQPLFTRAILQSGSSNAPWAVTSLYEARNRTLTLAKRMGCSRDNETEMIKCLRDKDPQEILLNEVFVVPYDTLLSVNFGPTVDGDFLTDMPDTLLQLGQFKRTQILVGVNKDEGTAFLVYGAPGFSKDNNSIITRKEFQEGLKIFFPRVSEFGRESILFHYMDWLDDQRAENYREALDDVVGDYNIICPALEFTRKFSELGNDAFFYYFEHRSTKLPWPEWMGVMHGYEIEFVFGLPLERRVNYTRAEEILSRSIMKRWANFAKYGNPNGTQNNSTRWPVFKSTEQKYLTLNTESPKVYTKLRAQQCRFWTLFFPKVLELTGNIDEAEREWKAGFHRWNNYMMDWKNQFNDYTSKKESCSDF
Experiment: Inhibition of equine serum BuChE using butyrylthiocholine iodide as substrate at 20 uM preincubated for 20 mins followed by substrate addition and measured after 20 mins by DTNB reagent based Ellman's method
Assay type: cell-free
Settings: time 40.0 min

Which inhibition does the source give for `O=C1N[C@@H]2C[C@@H](S(=O)(=O)F)[C@@H]2c2c(Br)cccc21` here?
Its inhibition is “Active”.

Which inhibition does the source give for `O=C1N[C@@H]2C[C@@H](S(=O)(=O)F)[C@@H]2c2c(Cl)cccc21` here?
Its inhibition is “Active”.

Molecular target: T1, Acetylcholinesterase
Experiment: Inhibition of electric eel AChE using acetylthiocholine iodide as substrate preincubated for 20 mins followed by substrate addition and measured after 20 mins by DTNB reagent based Ellman's method
Settings: not given

With `CN1C(=O)C(F)=C[C@@H]2[C@H]1C[C@H]2S(=O)(=O)NCCc1ccc(F)cc1` as the molecule, how does the IC50 read?
Its IC50 is 4.56 µM.

Which IC50 does the source give for `CN1C(=O)C(F)=C[C@@H]2[C@H]1C[C@H]2S(=O)(=O)NCCc1ccccc1F` here?
The IC50 was 10.8 µM.

Which IC50 does the source give for `CN1C(=O)C(F)=C[C@@H]2[C@H]1C[C@H]2S(=O)(=O)N1CCOCC1` here?
The IC50 was 1.3 µM.

Which IC50 does the source give for `CN1C(=O)C(F)=C[C@@H]2[C@H]1C[C@H]2S(=O)(=O)NCCC1CCN(Cc2ccccc2)CC1` here?
The IC50 was 0.38 µM.

With `CN1C(=O)C(F)=C[C@@H]2[C@H]1C[C@H]2S(=O)(=O)CC1CCN(Cc2ccccc2F)CC1` as the molecule, how does the IC50 read?
The IC50 was 5.38 µM.

For `O=C1N[C@@H]2C[C@@H](S(=O)(=O)NCCC3CCN(Cc4ccccc4)CC3)[C@@H]2c2c(Cl)cccc21`, which IC50 is on record?
Its IC50 is 0.094 µM.

Which IC50 does the source give for `O=C1N[C@@H]2C[C@@H](S(=O)(=O)F)[C@@H]2c2c(Cl)cccc21` here?
The IC50 was 6.82 µM.

For `CN1C(=O)C(F)=C[C@@H]2[C@H]1C[C@H]2S(=O)(=O)F`, which IC50 is on record?
The IC50 was 18.8 µM.

For `CCCNS(=O)(=O)[C@@H]1C[C@@H]2[C@H]1C=C(F)C(=O)N2C`, which IC50 is on record?
The IC50 was 6.78 µM.

With `O=C1N[C@@H]2C[C@@H](S(=O)(=O)NCCC3CCN(Cc4ccccc4)CC3)[C@@H]2c2c(Br)cccc21` as the molecule, how does the IC50 read?
The IC50 was 0.24 µM.

With `CN1C(=O)C(F)=C[C@@H]2[C@H]1C[C@H]2S(=O)(=O)N1CCC(Cc2ccc(F)cc2)CC1` as the molecule, how does the IC50 read?
Its IC50 is 7.87 µM.

System: Mus musculus
Experiment: Neuroprotective activity against amyloid beta 1-42 peptide induced ICR mouse assessed as decrease in cognitive function impairment at 5 mg/kg,po administration
Assay type: functional, organism-based
Settings: not given

With `O=C1N[C@@H]2C[C@@H](S(=O)(=O)NCCC3CCN(Cc4ccccc4)CC3)[C@@H]2c2c(Cl)cccc21` as the molecule, how does the Activity read?
The Activity was “Active”.

Molecular target: Cholinesterase (Equus caballus, UniProt P81908)
Sequence (P81908 whole entry): as above
Experiment: Inhibition of equine serum BuChE using butyrylthiocholine iodide as substrate preincubated for 20 mins followed by substrate addition and measured after 20 mins by DTNB reagent based Ellman's method
Assay type: cell-free
Settings: not given

Which IC50 does the source give for `CN1C(=O)c2ccccc2[C@@H]2[C@H]1C[C@H]2S(=O)(=O)F` here?
The IC50 was 12 µM.

For `CC1=C[C@@H]2[C@@H](C[C@@]2(Br)S(=O)(=O)F)N(C)C1=O`, which IC50 is on record?
Its IC50 is 10.7 µM.

With `CN1C(=O)C(F)=C[C@@H]2[C@H]1C[C@@]2(Br)S(=O)(=O)F` as the molecule, how does the IC50 read?
Its IC50 is 14 µM.

For `O=C1N[C@@H]2C[C@@H](S(=O)(=O)F)[C@@H]2c2c(Br)cccc21`, which IC50 is on record?
Its IC50 is 3.3 µM.

For `Cc1ccc2c(c1)[C@H]1[C@H](S(=O)(=O)F)C[C@H]1NC2=O`, which IC50 is on record?
Its IC50 is 5.03 µM.

For `O=C1N[C@@H]2C[C@@H](S(=O)(=O)F)[C@@H]2c2c(Cl)cccc21`, which IC50 is on record?
The IC50 was 7.98 µM.

System: PC-12
Experiment: Neuroprotective activity against H2O2-induced injury in rat PC12 cells assessed as increase in cell viability at 25 uM preincubated for 3 hrs followed by H2O2 addition and measured after 24 hrs by MTT assay relative to control
Assay type: functional
Settings: time 27 hrs

For `O=C1N[C@@H]2C[C@@H](S(=O)(=O)NCCC3CCN(Cc4ccccc4)CC3)[C@@H]2c2c(Cl)cccc21`, which Activity is on record?
Its Activity is 77.2%.

System: Mus musculus
Experiment: Neuroprotective activity against amyloid beta 1-42 peptide induced ICR mouse assessed as increase in number of neurons in hippocampus at 5 mg/kg,po administration by hematoxylin-eosin staining based microscopic analysis
Assay type: functional, organism-based
Settings: not given

For `O=C1N[C@@H]2C[C@@H](S(=O)(=O)NCCC3CCN(Cc4ccccc4)CC3)[C@@H]2c2c(Cl)cccc21`, which Activity is on record?
Its Activity is “Active”.

From ChEMBL document CHEMBL5620356, “Sulfur-fluoride exchange (SuFEx)-enabled lead discovery of AChE inhibitors by fragment linking strategies” (Eur J Med Chem, 2023)
